Experimental data taken from patent US12357631B2 (priority 2018, dated 2025).
pEC50: −log10 of the molar value.

These compounds were tested against PB2 (Influenza A virus, UniProt P03428) (assay: biochemical).
PB2, sequence (P03428 whole entry, looked up): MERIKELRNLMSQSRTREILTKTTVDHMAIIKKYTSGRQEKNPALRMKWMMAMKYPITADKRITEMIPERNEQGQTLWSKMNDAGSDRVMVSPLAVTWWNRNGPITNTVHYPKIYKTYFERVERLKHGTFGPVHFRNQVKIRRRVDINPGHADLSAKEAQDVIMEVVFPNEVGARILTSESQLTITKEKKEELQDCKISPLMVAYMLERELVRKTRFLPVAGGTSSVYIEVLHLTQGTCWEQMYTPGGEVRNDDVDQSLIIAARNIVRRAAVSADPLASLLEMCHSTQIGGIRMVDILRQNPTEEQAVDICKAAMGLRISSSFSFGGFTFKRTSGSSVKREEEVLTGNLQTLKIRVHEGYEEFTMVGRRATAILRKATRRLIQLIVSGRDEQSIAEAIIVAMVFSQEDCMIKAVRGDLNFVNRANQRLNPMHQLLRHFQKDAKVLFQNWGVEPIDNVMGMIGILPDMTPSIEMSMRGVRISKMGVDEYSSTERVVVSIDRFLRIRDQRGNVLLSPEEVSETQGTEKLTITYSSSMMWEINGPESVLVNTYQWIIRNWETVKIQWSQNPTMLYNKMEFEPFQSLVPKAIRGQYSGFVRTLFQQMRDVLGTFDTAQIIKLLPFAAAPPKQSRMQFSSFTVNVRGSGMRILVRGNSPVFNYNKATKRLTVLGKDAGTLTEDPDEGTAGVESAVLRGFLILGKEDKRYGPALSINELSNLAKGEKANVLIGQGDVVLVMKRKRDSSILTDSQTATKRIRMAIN
Format: binding
Compound `O=C(N[C@H]1CCC[C@@H](Nc2nc(-c3c[nH]c4ncc(F)cc34)ncc2F)C1)N1CCCc2ccccc21` [Compound A1] has a pEC50 of under 4.00.
In the case of `O=C(NCC(O)CO)OCc1ccnc(C(=O)N[C@H]2CCC[C@@H](Nc3nc(-c4c[nH]c5ncc(F)cc45)ncc3F)C2)c1` (stereo partly drawn) [Compound A99], the pEC50 was over 5.30.
`CCCCCCCCCCCN(C)C(=O)N[C@@H]1CCC[C@H](Nc2nc(-c3c[nH]c4ncc(F)cc34)ncc2F)C1` [Compound A175] showed a pEC50 of 4.00 to 4.30.
Compound `CCOCCOCCOCCNC(=O)N(CCOCCOCC)[C@@H]1CCC[C@H](Nc2nc(-c3c[nH]c4ncc(F)cc34)ncc2F)C1` [Compound B4] has a pEC50 of under 4.00.
Compound `CCCOCCOCCCCN(C)C(=O)N[C@H]1CCC[C@@H](Nc2nc(-c3c[nH]c4ncc(F)cc34)ncc2F)C1` [Compound A243] has a pEC50 of under 4.00.
For `COC(=O)N[C@H]1CCC[C@@H](Nc2nc(-c3c[nH]c4ncc(F)cc34)ncc2F)C1` [Compound A286], the pEC50 was 4.30 to 4.60.
Work on `CCCCCOCCOCCN(Cc1ccccc1)C(=O)N[C@@H]1CCC[C@H](Nc2nc(-c3c[nH]c4ncc(F)cc34)ncc2F)C1` [Compound A179] yielded a pEC50 of under 4.00.
`CCOCCCCCCc1ccnc(C(=O)N[C@H]2CCC[C@@H](Nc3nc(-c4c[nH]c5ncc(F)cc45)ncc3F)C2)c1` [Compound A30] was tested, and the pEC50 was under 4.00.
Work on `CCOCCOCCCc1cc(C(=O)N[C@@H]2CCC[C@H](Nc3nc(-c4c[nH]c5ncc(F)cc45)ncc3F)C2)ncn1` [Compound A33] yielded a pEC50 of under 4.00.
For `CCCCCOCCOCCNC(=O)N[C@@H]1CCC[C@H](Nc2nc(-c3c[nH]c4ncc(F)cc34)ncc2F)C1` [Compound A183], the pEC50 was 4.00 to 4.30.
With `CCOCc1cccc(COCC(=O)N[C@@H]2CCC[C@H](Nc3nc(-c4c[nH]c5ncc(F)cc45)ncc3F)C2)c1` [Compound A275] the pEC50 was under 4.00.
`CCOCCCc1cncc(CCN(C)C(=O)N[C@H]2CCC[C@@H](Nc3nc(-c4c[nH]c5ncc(F)cc45)ncc3F)C2)c1` [Compound A215] was tested, and the pEC50 was under 4.00.
`CN(CCOCCOCCOCCO)C(=O)N[C@H]1CCC[C@@H](Nc2nc(-c3c[nH]c4ncc(F)cc34)ncc2F)C1` [Compound A190] gave a pEC50 of under 4.00.
For `C[C@@H](NC(=O)OCc1ccnc(C(=O)N[C@@H]2CCC[C@H](Nc3nc(-c4c[nH]c5ncc(F)cc45)ncc3F)C2)c1)C(=O)O` [Compound A141], the pEC50 was over 5.30.
With `O=C(N[C@H]1CCC[C@@H](Nc2nc(-c3c[nH]c4ncc(F)cc34)ncc2F)C1)c1cc2ccccc2cn1` [Compound A46] the pEC50 was under 4.00.
Work on `O=C(O)COCCOCCOCCC(=O)N[C@H]1CCC[C@@H](Nc2nc(-c3c[nH]c4ncc(F)cc34)ncc2F)C1` [Compound A269] yielded a pEC50 of 4.60 to 5.30.
`CCCCCOCCOCCN(C)C(=O)N[C@@H]1CCC[C@H](Nc2nc(-c3c[nH]c4ncc(F)cc34)ncc2F)C1` [Compound A177] was tested, and the pEC50 was under 4.00.
`Cc1cncc(C(=O)N[C@@H]2CCC[C@H](Nc3nc(-c4c[nH]c5ncc(F)cc45)ncc3F)C2)c1` [Compound A64] showed a pEC50 of over 5.30.
`CC(NC(=O)OCc1ccnc(C(=O)N[C@H]2CCC[C@@H](Nc3nc(-c4c[nH]c5ncc(F)cc45)ncc3F)C2)c1)c1ccccn1` (stereo partly drawn) [Compound A136] was tested, and the pEC50 was 4.60 to 5.30.
Work on `CCOCCOCCCC1CCN(C(=O)N[C@@H]2CCC[C@H](Nc3nc(-c4c[nH]c5ncc(F)cc45)ncc3F)C2)C1` (stereo partly drawn) [Compound A7] yielded a pEC50 of 4.60 to 5.30.
With `CCOCCCc1cccc(CCN(C)C(=O)N[C@H]2CCC[C@@H](Nc3nc(-c4c[nH]c5ncc(F)cc45)ncc3F)C2)c1` [Compound A220] the pEC50 was 4.00 to 4.30.
Compound `O=C(N[C@H]1CCC[C@@H](Nc2nc(-c3c[nH]c4ncc(F)cc34)ncc2F)C1)N1Cc2ccccc2C1` [Compound A3] has a pEC50 of 4.60 to 5.30.
`O=C(O)CCC(=O)N1CCC[C@H](Nc2nc(-c3c[nH]c4ncc(F)cc34)ncc2F)C1` [Compound C5] showed a pEC50 of over 5.30.
Compound `O=C(N[C@H]1CCC[C@@H](Nc2nc(-c3c[nH]c4ncc(F)cc34)ncc2F)C1)c1cccnc1` [Compound A37] has a pEC50 of under 4.00.
`CN(CCCCCOCCOCc1ccccc1)C(=O)N[C@H]1CCC[C@@H](Nc2nc(-c3c[nH]c4ncc(F)cc34)ncc2F)C1` [Compound A221] showed a pEC50 of under 4.00.
With `CCCCCCCCCCCN(Cc1ccccc1)C(=O)N[C@@H]1CCC[C@H](Nc2nc(-c3c[nH]c4ncc(F)cc34)ncc2F)C1` [Compound A185] the pEC50 was under 4.00.
`CCOCCCCCOCC(=O)N[C@@H]1CCC[C@H](Nc2nc(-c3c[nH]c4ncc(F)cc34)ncc2F)C1` [Compound A274] showed a pEC50 of under 4.00.
With `O=C(N[C@@H]1CCC[C@H](Nc2nc(-c3c[nH]c4ncc(F)cc34)ncc2F)C1)c1cc(Oc2ccccc2)ccn1` [Compound A66] the pEC50 was under 4.00.
In the case of `CCOCCCCCOCCN(C)C(=O)N[C@H]1CCC[C@@H](Nc2nc(-c3c[nH]c4ncc(F)cc34)ncc2F)C1` [Compound A193], the pEC50 was under 4.00.
`CCOCCOCCCCCN(C)C(=O)N(C)[C@H]1CCC[C@@H](Nc2nc(-c3c[nH]c4ncc(F)cc34)ncc2F)C1` [Compound A241] showed a pEC50 of under 4.00.
Compound `O=C(N[C@H]1CCC[C@@H](Nc2nc(-c3c[nH]c4ncc(F)cc34)ncc2F)C1)N1CCCC(CCCOCCOCc2ccccc2)C1` (stereo partly drawn) [Compound A9] has a pEC50 of under 4.00.
Work on `CCOCCOCCCCCN(C(=O)N[C@@H]1CCC[C@H](Nc2nc(-c3c[nH]c4ncc(Cl)cc34)ncc2Cl)C1)C(C)C` [Compound A249] yielded a pEC50 of under 4.00.
`CCC(CC)OCCOCCCc1ccnc(C(=O)N[C@@H]2CCC[C@H](Nc3nc(-c4c[nH]c5ncc(F)cc45)ncc3F)C2)c1` [Compound A40] was tested, and the pEC50 was under 4.00.
With `O=C(NCCc1ccc(F)cc1)OCc1ccnc(C(=O)N[C@H]2CCC[C@@H](Nc3nc(-c4c[nH]c5ncc(F)cc45)ncc3F)C2)c1` [Compound A101] the pEC50 was under 4.00.
Compound `CCOCCOCCCCCNC(=O)N[C@@H]1CCC[C@H](Nc2nc(-c3c[nH]c4ncc(F)cc34)ncc2F)C1` [Compound A180] has a pEC50 of under 4.00.
`CCOCCCCCOCCN(Cc1ccccc1)C(=O)N[C@H]1CCC[C@@H](Nc2nc(-c3c[nH]c4ncc(F)cc34)ncc2F)C1` [Compound A196] was tested, and the pEC50 was under 4.00.
`CCCCCOCCOCC(=O)N[C@H]1CCC[C@@H](Nc2nc(-c3c[nH]c4ncc(F)cc34)ncc2F)C1` [Compound A277] showed a pEC50 of under 4.00.
Work on `CCOCCOCCCCCN(Cc1ccccc1)C(=O)N[C@@H]1CCC[C@H](Nc2nc(-c3c[nH]c4ncc(F)cc34)ncc2F)C1` [Compound A182] yielded a pEC50 of 4.00 to 4.30.
Compound `CCOCCOCCOCCNC(=O)N(CCCCc1ccccc1)[C@H]1CCC[C@@H](Nc2nc(-c3c[nH]c4ncc(F)cc34)ncc2F)C1` [Compound A194] has a pEC50 of under 4.00.
Work on `CC(C)[C@H](NC(=O)OCc1ccnc(C(=O)N[C@@H]2CCC[C@H](Nc3nc(-c4c[nH]c5ncc(F)cc45)ncc3F)C2)c1)C(=O)O` [Compound A135] yielded a pEC50 of 4.60 to 5.30.
In the case of `C[C@H](NC(=O)OCc1ccnc(C(=O)N[C@@H]2CCC[C@H](Nc3nc(-c4c[nH]c5ncc(F)cc45)ncc3F)C2)c1)C(=O)O` [Compound A134], the pEC50 was over 5.30.
For `CCCCOCCCCCCN(C)C(=O)N[C@@H]1CCC[C@H](Nc2nc(-c3c[nH]c4ncc(F)cc34)ncc2F)C1` [Compound A200], the pEC50 was under 4.00.
In the case of `CCOCCOCCCCCOC(=O)N[C@@H]1CCC[C@H](Nc2nc(-c3c[nH]c4ncc(F)cc34)ncc2F)C1` [Compound A281], the pEC50 was under 4.00.
`CCOCCOCCCCCN(Cc1cncnc1)C(=O)N[C@H]1CCC[C@@H](Nc2nc(-c3c[nH]c4ncc(F)cc34)ncc2F)C1` [Compound A209] showed a pEC50 of under 4.00.
For `CC(NC(=O)OCc1ccnc(C(=O)N[C@H]2CCC[C@@H](Nc3nc(-c4c[nH]c5ncc(F)cc45)ncc3F)C2)c1)c1ccc(F)cc1` (stereo partly drawn) [Compound A131], the pEC50 was under 4.00.
With `O=C(NCc1ccc2c(c1)OCO2)OCc1ccnc(C(=O)N[C@H]2CCC[C@@H](Nc3nc(-c4c[nH]c5ncc(F)cc45)ncc3F)C2)c1` [Compound A130] the pEC50 was under 4.00.
`CCOc1ccccc1OCCCc1ccnc(C(=O)N[C@@H]2CCC[C@H](Nc3nc(-c4c[nH]c5ncc(F)cc45)ncc3F)C2)c1` [Compound A29] showed a pEC50 of under 4.00.
`O=C(NCc1ccncc1)OCc1ccnc(C(=O)N[C@H]2CCC[C@@H](Nc3nc(-c4c[nH]c5ncc(F)cc45)ncc3F)C2)c1` [Compound A108] was tested, and the pEC50 was 4.60 to 5.30.
In the case of `O=C(O)CCc1ccnc(C(=O)N[C@H]2CCC[C@@H](Nc3nc(-c4c[nH]c5ncc(F)cc45)ncc3F)C2)c1` [Compound A49], the pEC50 was over 5.30.
`O=C(O)CCOCCOCCOCC(=O)N[C@H]1CCC[C@@H](Nc2nc(-c3c[nH]c4ncc(F)cc34)ncc2F)C1` [Compound A268] showed a pEC50 of over 5.30.
Work on `CCOCCOc1cccc(CCNC(=O)N[C@@H]2CCC[C@H](Nc3nc(-c4c[nH]c5ncc(F)cc45)ncc3F)C2)c1` [Compound A178] yielded a pEC50 of under 4.00.
Compound `O=C(O)CC(=O)N1CCC[C@H](Nc2nc(-c3c[nH]c4ncc(F)cc34)ncc2F)C1` [Compound C10] has a pEC50 of over 5.30.
With `O=C(O)CNC(=O)OCc1ccnc(C(=O)N[C@@H]2CCC[C@H](Nc3nc(-c4c[nH]c5ncc(F)cc45)ncc3F)C2)c1` [Compound A107] the pEC50 was over 5.30.
Work on `CCOCCOCCCCCN(C)C(=O)NCC(C)CNc1nc(-c2c[nH]c3ncc(F)cc23)ncc1F` (stereo not drawn) [Compound A218] yielded a pEC50 of under 4.00.
Compound `O=C(NCCc1cccc(Oc2ccccc2)c1)OCc1ccnc(C(=O)N[C@H]2CCC[C@@H](Nc3nc(-c4c[nH]c5ncc(F)cc45)ncc3F)C2)c1` [Compound A109] has a pEC50 of under 4.00.
Compound `Cc1ccnc(C(=O)N[C@H]2CCC[C@@H](Nc3nc(-c4c[nH]c5ncc(F)cc45)ncc3F)C2)c1` [Compound A53] has a pEC50 of 4.60 to 5.30.
`O=C(COCCOCCOCCO)N[C@@H]1CCC[C@H](Nc2nc(-c3c[nH]c4ncc(F)cc34)ncc2F)C1` [Compound A265] gave a pEC50 of 4.60 to 5.30.
In the case of `O=C(N[C@@H]1CCC[C@H](Nc2nc(-c3c[nH]c4ncc(F)cc34)ncc2F)C1)c1cc(COCCCCCOCc2ccc(F)cc2)ccn1` [Compound A95], the pEC50 was under 4.00.
For `CCOCCOCCOCCN(Cc1ccccc1)C(=O)N[C@@H]1CCC[C@H](Nc2nc(-c3c[nH]c4ncc(F)cc34)ncc2F)C1` [Compound A176], the pEC50 was under 4.00.
`O=C(NCc1ccc(F)cc1)OCc1ccnc(C(=O)N[C@@H]2CCC[C@H](Nc3nc(-c4c[nH]c5ncc(F)cc45)ncc3F)C2)c1` [Compound A92] showed a pEC50 of under 4.00.
For `CCOCCOCCCCCN(CC(N)=O)C(=O)N[C@@H]1CCC[C@H](Nc2nc(-c3c[nH]c4ncc(F)cc34)ncc2F)C1` [Compound A210], the pEC50 was 4.00 to 4.30.
In the case of `CCOCCOCCCCCN(CC)C(=O)N[C@H]1CCC[C@@H](Nc2nc(-c3c[nH]c4ncc(F)cc34)ncc2F)C1` [Compound A203], the pEC50 was under 4.00.
Compound `O=C(NCc1ccccc1)OCc1ccnc(C(=O)N[C@@H]2CCC[C@H](Nc3nc(-c4c[nH]c5ncc(F)cc45)ncc3F)C2)c1` [Compound A91] has a pEC50 of under 4.00.
